Laboratory results from patent US20080175880A1, “Pyridoxal-5-Phosphate And Stent For The Treatment And Prevention Of Atherosclerosis And Restenosis” (MEIDCURE INTERNATIONAL INC., priority 2004, published 2008).

What was measured:
HEK 293 P2X7 cells = experiment: ATP/BzATP induced apoptosis, Cell Death Detection ELISA; format: cell-based, human; settings: for induction of cell apoptosis: P2X7 expressing cells
Description: Cell Lines—HEK 293 cell line (human), is stabily transfected with the P2X7 receptor [9] to produce HEK 293 P2X7 cells.
(§1) Apoptosis—HEK-293 P2X7 (human) cells are treated with ATP and/or BzATP to induce apoptosis (Wen et al., 2003). The level of apoptosis is determined using a Cell Death Detection ELISA, which is based on DNA laddering. Various doses of P5P are added to the cells to determine its ability to inhibit ATP induced apoptosis. OxATP (Murgia et al., 1993), PPADS (Chessell I P et al., 1998) and/or KN-62 (Humphreys B D et al., 1998) are used as positive controls.

wild type HEK 293 cells = experiment: ATP/BzATP induced apoptosis in wild type control cells; format: cell-based, human; settings: wild type cells without P2X7
Description: as §1
Control—All the experiments are carried out in wild type HEK 293 cells as a control.

LPS primed THP-1 cells = experiment: ATP induced IL-1β secretion, ELISA; format: cell-based; settings: for inhibition of IL-1β secretion: LPS primed THP-1 cells treated with ATP
Description: LPS primed THP-1 cells are treated with ATP to induced IL-1β secretion (Grahames C B A et-al (1999) Br J Pharm 127:1915-1921). IL-1β secretion levels are determined by ELISA. Various doses of P5P are added to the cells to determine its ability to Inhibit the ATP induced IL-1β secretion. OxATP (Grahames et al., 1999), PPADS (Grahames et al., 1999), and/or KN-62 (Grahames et al., 1999) are used as positive controls.

[1] = Rabbit aortic balloon-injury model; format: in vivo; settings: 10 mg/kg daily by gavage
Description: Rabbit Aortic Balloon-Injury Model—Forty male New Zealand White rabbits (2.5-3.0 kg) are used. Rabbits are fed regular rabbit chow (control, 20 rabbits) or a 1% cholesterol diet (treated, 20 rabbits) for 8 weeks. Half of each group receives 10 mg/kg P5P (provided by CanAm Bioresearch Inc.) daily by gavage, with the other half receiving saline by gavage. After 4 weeks, a 3F Fogarty embolectomy catheter (Baxter) is inserted into the right femoral artery of each rabbit, advanced 25 cm proximally, and then withdrawn to the origin with the balloon inflated to 0.2 mL saline, a step repeated twice (Lau et al., Probucol promotes functional reendothelialization in balloon-injured rabbit aortas. Circulation 2003; 107(15):2031-6). At 8 weeks, the right and left femoral arteries are harvested from each animal (left femoral arteries serve as uninjured controls). Segments for histology are pressure-perfused with formalin, stored in. 70% (vol/vol) ethanol, and then embedded in paraffin.
Histology—One 5 μm thick cross-section is taken from each of 6 segments of the femoral aorta and stained with hematoxylin and eosin. Morphometric analysis of the 6 arterial cross-sections per animal is performed using Imagespace software (Molecular Dynamics). The intimal and medial areas of each arterial cross-section specimen is measured, and the average intimal/medial area ratio is determined for each group.
Inflammatory Markers, Lipid Profile, and Homocysteine Levels—At the beginning and end of the study, and every 2 weeks throughout, blood samples are collected through a catheter inserted in the ear artery of conscious rabbits. Plasma interleukin-6 (IL-6) levels are measured with quantitative sandwich enzyme immunoassay employing commercial kits for rats (R&D Systems) (Oubina et al., Synergistic effect of angiotensin-converting enzyme (ACE) and 3-hydroxy-3-methylglutaryl-CoA (HMG-CoA) reductase inhibition on inflammatory markers in atherosclerotic rabbits. Clin Sci (Lond). 2003; 105(6):655-62). CRP plasma levels are measured with an immunoassay kit for rabbits (Alpco Diagnostics). Plasma cholesterol levels are measured using colorimetric reactions employing commercial kits (Roche Diagnostics). Homocysteine levels are determined by high performance liquid chromatography, as previously described (Zhloba and Blashko, Liquid chromatographic determination of total homocysteine in blood plasma with photometric detection. J Chromatogr B Analyt Technol Biomed Life Sci. 2004; 800(1-2):275-80).
Evaluation of Endothelial Function by Ultrasound—Ultrasound evaluation of endothelial function of the femoral aorta is performed at the beginning and end of the study, and every 2 weeks throughout (Drolet et al., Early endothelial dysfunction in cholesterol-fed rabbits: a non-invasive in vivo ultrasound study. Cardiovasc Ultrasound. 2004; 2(1):10). Rabbits are sedated using midazolam (0.5 mg/kg), butorphanol (0.5 mg/kg) and ketamine (30 mg/kg) IM. Marginal ear vein and artery are cannulated for drug infusions and arterial blood pressure monitoring, respectively. Heart rate is monitored continuously throughout the procedure. […]
Once the imaging of the aorta is optimal, the animals receive the following drug perfusions I.V. sequentially for 2 minutes each: 1) saline at 1 ml/min; 2) acetylcholine (Ach) at 0.05 μg/ml/min and Ach at 0.5 μg/ml/min. […] Images of the femoral aorta are recorded continuously through the entire procedure on standard S-VHS videotape for off-line analysis. […]

[2] = Double-blind placebo-controlled trial in PCI (angioplasty) patients; format: in vivo, human
Description: Study Design and Population—The study is a multicenter, double-blind, placebo-controlled, randomized trial. The protocol is approved by institutional review boards prior to commencement. Patients referred for elective percutaneous coronary interventional (PCI) are evaluated 14 days before their scheduled procedures. Eligible patients are asked to provide written informed consent and undergo medical history, physical examination, electrocardiography, hematology, and clinical biochemistry. Patients are eligible if they are scheduled to undergo PCI with or without stenting on one native coronary artery and have one de novo target lesion with luminal narrowing 50%. Subjects who have severe liver disease or serum creatinine 200 μmol/L; myocardial infarction within the past 7 days; left main stenosis >50%; ejection fraction <30%; have had PCI for another lesion in the preceding 6 months; are being treated for a restenotic lesion; or have scheduled atherectomy, brachytherapy, or PCI of a bypass graft before randomization are excluded. A total of 120 patients are enrolled, with 60 randomized to receive P5P and 60 to receive placebo.
The primary endpoint is clinical restenosis requiring target lesion revascularization at six months. The secondary end points are major adverse cardiac events (MACE) including death, myocardial infarction and revascularization.
Randomization and Drug Regimen—Patients are randomly assigned to receive P5P (provided by CanAm Bioresearch Inc.) 750 mg once day or placebo beginning 14 days before scheduled PCI. P5P or matched placebo is administered as 3 tablets given once daily. All patients will also receive an extra dose of P5P or matched placebos on the evening before PCI, according to random treatment assignment. After PCI, all patients are maintained on their assigned study regimen for 4 additional weeks.
PCI and Follow-Up Evaluation—PCI with or without stent placement and post-PCI management will be performed according to current clinical practice. ECGs are obtained before PCI, immediately thereafter, and the morning after PCI. Creatine kinase, creatine kinase-MB fraction, and troponin I are measured on the evening after PCI and the following morning. Patients are discharged after PCI with 4 weeks of the study medication. Aspirin 325 mg/d is given from the time of recruitment and for the entire study duration. All-patients treated with stents also receive clopidogrel 75 mg/d for 30 days after PCI. Patients will return at 1 Month, 3 months and 6 months for clinical evaluation and drug accountability. Patients are assessed for ischemic symptoms and adverse events, whether or not they were related to the study medication or PCI procedure. Blood chemistry values assessed at baseline are measured again at PCI discharge and at follow-up visits. Patients are readmitted for follow-up catheterization and IVUS 5 to 7 months after PCI. […]
IVUS Examinations and Measurements—IVUS examinations are performed with 30-MHz, 3.2 F ultrasound catheters (Tardif et al., Canadian Antioxidant Restenosis Trial (CART-1) Investigators. Effects of AGI-1067 and probucol after percutaneous coronary interventions. Circulation. 2003; 107(4):552-8). IVUS studies are recorded before, PCI whenever possible and are always performed after PCI (after final balloon inflation) and at follow-up (before any subsequent intervention). […] The preintervention, post-PCI, and follow-up studies are analyzed side by side. […]

[3] = test system: hepatic cytochrome enzymes; experiment: Inhibition of hepatic cytochrome enzymes; format: in vitro ADME
[4] = Tolerability and toxicity in animal and human studies; format: in vivo
[5] = test system: freshly isolated adult rat cardiomyocytes; settings: previous finding of the inventors (refs 89, 93); cited from earlier work
[6] = test system: isolated perfused rat hearts; settings: previous finding of the inventors (refs 89, 90); cited from earlier work
human platelet = settings: cited from earlier work
[7] = cited from earlier work
[8] = 750 mg once a day from 14 days before to 4 weeks after PCI

Molecule: Nc1ncnc2c1ncn2[C@@H]1O[C@H](COP(=O)(O)OP(=O)(O)OP(=O)(O)O)[C@@H](O)[C@H]1O [ATP, adenosine triphosphate]
- induction of cell apoptosis (HEK 293 P2X7 cells): induce
- induction of cell apoptosis (wild type HEK 293 cells): do not induce
- induction of IL-1β secretion (LPS primed THP-1 cells; LPS primed THP-1 cells): induces

Molecule: CN([C@@H](Cc1ccc(OS(=O)(=O)c2cccc3cnccc23)cc1)C(=O)N1CCN(c2ccccc2)CC1)S(=O)(=O)c1cccc2cnccc12 [KN-62]
- inhibition of IL-1β secretion (LPS primed THP-1 cells): inhibits

Molecule: Nc1ncnc2c1ncn2[C@@H](C=O)O[C@@H](C=O)COP(=O)(O)OP(=O)(O)OP(=O)(O)O [OxATP]
- inhibition of IL-1β secretion (LPS primed THP-1 cells): inhibits

Molecule: Cc1ncc(COP(=O)(O)O)c(C=O)c1O [P5P, Pyridoxal-5′-phosphate]
- inhibition of ATP mediated cell apoptosis (HEK 293 P2X7 cells; P2X7 expressing HEK 293 cells, vs untreated cells): inhibits
- inhibition of IL-1β secretion (LPS primed THP-1 cells): inhibits
- CRP levels ([1]; 8 weeks): lowered
- homocysteine levels ([1]; 8 weeks): lowered
- lipid profile ([1]; 8 weeks): improved
- incidence of restenosis ([1]; balloon injury): decreased incidence
- endothelial function ([1]; ultrasound): improved
- CRP levels [2, 8]: lowered
- homocysteine levels [2, 8]: lowered
- incidence of restenosis following PCI [2, 8]: decreased incidence
- lipid profile [2, 8]: improved
- endothelial function ([2]; 750 mg once a day, brachial artery ultrasound): improved
- inhibition of hepatic cytochrome enzymes [3]: does not inhibit
- tolerability [4]: easily tolerated
- toxicity [4]: low toxicity
- inhibition of ATP induced calcium influx [5]: inhibits
- inhibition of positive inotropic effects of ATP [6]: inhibits
- inhibition of prostaglandin E1 and theophylline-induced platelet aggregation (human platelet; in vitro (ref 123)): inhibit
- inhibition of platelet aggregation and 14C-5HT release (human platelet; induced by ADP, thrombin, adrenaline, platelet activating factor, arachidonic acid, in vitro (ref 122)): inhibit
- inhibition of thromboxane B2 generation (human platelet; induced by all of these agents except arachidonic acid (ref 122)): inhibited

Molecule: Cc1nc(N=Nc2ccc(S(=O)(=O)O)cc2S(=O)(=O)O)c(COP(=O)(O)O)c(C=O)c1O [PPADS]
- inhibition of IL-1β secretion (LPS primed THP-1 cells): inhibits

Molecule: Cc1ncc(CO)c(CO)c1O [pyridoxine]
- plasma antithrombin III (AT III) activity ([7]; atherosclerotic patients (ref 16)): significantly increased
- AT III activity ([7]; patients with genetic homocysteinuria (ref 125)): increase
- bleeding time ([7]; patients, 100 mg twice daily for 15 days (ref 124)): significantly prolonged
- platelet aggregation induced with ADP or epinephrine ([7]; plasma from patients, 100 mg twice daily for 15 days (ref 124)): significantly inhibited

Molecule: BzATP
- induction of cell apoptosis (HEK 293 P2X7 cells): induce
- induction of cell apoptosis (wild type HEK 293 cells): do not induce
